Results published in BindingDB's records for doi:10.1002/cbic.200900537 (University of Cambridge, 2009).

Biological target: T1, Pantothenate synthetase (Mycobacterium tuberculosis (strain ATCC 25618 / H37Rv), UniProt P9WIL5)
T1 sequence (P9WIL5 whole entry): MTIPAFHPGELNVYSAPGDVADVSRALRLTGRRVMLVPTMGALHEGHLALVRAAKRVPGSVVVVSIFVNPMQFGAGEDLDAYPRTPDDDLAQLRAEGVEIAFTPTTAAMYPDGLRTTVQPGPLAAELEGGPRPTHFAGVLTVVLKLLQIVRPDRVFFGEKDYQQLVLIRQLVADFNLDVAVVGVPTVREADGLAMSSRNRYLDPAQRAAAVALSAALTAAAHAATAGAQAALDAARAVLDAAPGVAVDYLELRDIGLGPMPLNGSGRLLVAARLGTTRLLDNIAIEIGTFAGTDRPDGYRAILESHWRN
Experiment: Binding Assay
Details: pH 7.6; 25 °C
Description: The dissociation constants and enthalpies was determined by isothermal titration calorimety.

## Nc1ncnc2c1ncn2[C@@H]1O[C@H](CSSCC(O)CO)[C@@H](O)[C@H]1O (stereo partly specified) [5'-Deoxy-5'-thiodenosine scaffold, 14c]
  Kd: 570 µM
